From patent publication US5137887A, “Salts of optically active 4-hydroxy-8(3-lower alkoxy-4-phenylsulfinylphenyl)pyrazolo(1,5-A)-1,3,5- triazines and a process for production thereof” (Otsuka Pharmaceutical Factory, Inc., priority 1989, dated 1992)
Like-named read-outs stand apart in the source and are kept apart here.

What was measured:
[1] = test system: xanthine dehydrogenase activity in the liver; assay: Xanthine dehydrogenase inhibitory activity test (enzyme activity in liver after oral administration); type: in vivo; details: male ICR rats, 5 mg/kg orally in 0.5% CMC; for Enzymatic activity in the liver isolated after 4 hr.: liver excised 4 hours after administration; for Enzymatic activity in the liver isolated after 8 hr.: liver excised 8 hours after administration
Procedure: Xanthine dehydrogenase inhibitory activity test
The test was performed using male ICR […] (aged 6 weeks, b.w. 28.0-40.6 g). The compounds of the invention as obtained in Example 2 were respectively suspended in 0.5% carboxymethylcellulose (CMC) solution and the suspensions were administered orally at the rate of 10 ml/kg (Test Group 1 and Test Group 2). The compound of the invention and its dosage used in each test group are shown below.
After 4 and 8 hours from the administration, animals in each group were sacrified, the liver was excised, and the xanthine dehydrogenase activity in the liver was assayed by the following general procedure.
Thus, a homogenate of the liver was diluted 5-fold with 100 mM Tris-HCl buffer (hereinafter referred to merely as buffer). Then, 50 μl of this dilution, 25 μl of a buffer dilution of NAD^+ (20 mM) and 25 μl of a buffer solution of potassium oxonate were added to 300 μl of the buffer (the concentrations of NAD^+ and potassium oxonate in the total solution were 1 mM each) and the mixture was incubated at 25° C. for 5 minutes. This incubate was centrifuged and the uric acid in the supernatant was estimated by high performance liquid chromatography (HPLC). The value was taken as the pre-treatment baseline.
On the other hand, to a preincubate obtained in the same manner as above was added 100 μl of a buffer solution of xanthine (1 mM) and the mixture was incubated at 25° C. for 5 minutes. The reaction was stopped with 50 μl of 6M perchloric acid and the reaction mixture was centrifuged in the same manner as above. The supernatant was neutralized with an aqueous solution of sodium dihydrogen phosphate and uric acid produced was assayed by HPLC. The value was taken as the post-treatment value.
From the difference between the above post-treatment value and pre-treatment baseline value of uric acid, xanthine dehydrogenase activity was determined.

Solubility test = type: physicochemical; details: shaken at 25° C., HPLC
Procedure: Solubility tests with the above respective samples using water (distilled water for injection) and physiological saline as solvents were performed as follows.
Using an incubator (Taiyo Kagaku Kogyo, M-100), the tube was shaken at 25° C. After 4 hours, the content was filtered through a 0.45 μm filter and the filtrate was diluted 100-fold with mobile phase to prepare a test solution. Separately, 40.0 mg of Sample I (racemic form) was accurately weighed and made up with water to make exactly 200 ml. Then, 1 ml of this solution was accurately taken and diluted with mobile phase to make exactly 20 ml (10 μg/ml) of standard solution. Using the above test solutions and the standard solution, the solubilities of the respective samples were determined.

[2] = physiological saline, read-out: Solubility in physiological saline
[3] = water, water (distilled water for injection), read-out: Solubility in water

SMILES: COc1cc(-c2cnn3c([O-])ncnc23)ccc1[S+]([O-])c1ccccc1.O.O.[Na+] (single isomer, unassigned) [Sample III, Sodium (+)-8-(3-methoxy-4-phenylsulfinylphenyl)pyrazolo[1,5-a]-1,3,5-triazine-4-olate dihydrate]
- Enzymatic activity in the liver isolated after 4 hr. ([1]; control 152 ± 21, listed as Test group 2, dihydrate): 33 ± 16 mU/g
- Enzymatic activity in the liver isolated after 8 hr. ([1]; control 137 ± 31, listed as Test group 2, dihydrate): 22 ± 10 mU/g

SMILES: COc1cc(-c2cnn3c(O)ncnc23)ccc1[S+]([O-])c1ccccc1 (single isomer, unassigned) [Sample IV, Calcium bis[(-)-8-(3-methoxy-4-phenylsulfinylphenyl)pyrazolo[1,5-a]-1,3,5-triazine-4-olate] dihydrate]
- solubility at 4 h (Solubility test; [2]): ≥ 500 mg/mL
- solubility at 4 h (Solubility test; water (distilled water for injection), read-out: Solubility in water): ≥ 500 mg/mL

SMILES: COc1cc(-c2cnn3c([O-])ncnc23)ccc1[S+]([O-])c1ccccc1.O.[Na+] (racemic) [Sample I, Sodium (±)-8-(3-methoxy-4-phenylsulfinylphenyl)pyrazolo[1,5-a]-1,3,5-triazine-4-olate monohydrate, reference compound]
- Solubility in physiological saline (Solubility test; physiological saline, 4 hours, listed as sodium salt of the racemic compound, monohydrate, 240 min): about 0.08 w/w %
- Solubility in physiological saline (Solubility test; physiological saline, 4 hours, monohydrate, 240 min): 0.0083 w/w %
- Solubility in water (Solubility test; water (distilled water for injection), 4 hours, listed as sodium salt of the above racemic compound, monohydrate, 240 min): about 0.2 w/w %
- solubility at 4 h (Solubility test; [3]): 2.21 mg/mL

SMILES: COc1cc(-c2cnn3c([O-])ncnc23)ccc1[S+]([O-])c1ccccc1.O.O.[Na+] (single isomer, unassigned) [Sample II, Sodium (-)-8-(3-methoxy-4-phenylsulfinylphenyl)pyrazolo[1,5-a]-1,3,5-triazine-4-olate dihydrate]
- solubility at 4 h (Solubility test; [2]): ≥ 500 mg/mL
- solubility at 4 h (Solubility test; [3]): ≥ 500 mg/mL
- Enzymatic activity in the liver isolated after 4 hr. ([1]; control 152 ± 21, listed as Test group 1, dihydrate): 7 ± 4 mU/g
- Enzymatic activity in the liver isolated after 8 hr. ([1]; control 137 ± 31, listed as Test group 1, dihydrate): 17 ± 7 mU/g
